Assays:
[1] = tested on: healthy subjects; assay: Thorough QT study: ECG; conditions: positive control
[2] = tested on: healthy subjects; assay: Safety and tolerability; type: in vivo, human; conditions: ITT population, by treatment
[3] = tested on: patients with type 2 diabetes / healthy subjects; conditions: previous findings; cited from earlier work

Molecule | LS mean ΔΔQTcP (two-sided 90% CI) ([1]; 1 h following single 400 mg oral dose) | LS mean ΔΔQTcP (two-sided 90% CI) ([1]; 2 h following single 400 mg oral dose) | LS mean ΔΔQTcP (two-sided 90% CI) ([1]; 3 h following single 400 mg oral dose) | subjects experiencing adverse events [2] [%] | changes in QTc at therapeutic concentrations [3]
COc1c(N2C[C@@H]3CCCN[C@@H]3C2)c(F)cc2c(=O)c(C(=O)O)cn(C3CC3)c12 [moxifloxacin] | 5.47 (2.82, 8.12) ms | 10.56 (8.46, 12.67) ms | 10.93 (8.71, 13.13) | 23 | –
liraglutide | – | – | – | – | no clinically meaningful changes in QTc

— PMC3612716 (British Journal of Clinical Pharmacology, 2012)
